# Source: ChEMBL document CHEMBL4610053, “Synthesis and biological evaluation of 2-quinolineacrylamides” (Bioorg Med Chem, 2020)
# Columns and labels:
# Homo sapiens [1] = organism: Homo sapiens; test: Selectivity ratio of IC50 for recombinant human C-terminal His-tagged HDAC8 (1 to 377 residues) expressed in insect cells to IC50 of human HDAC6
# Histone deacetylase 8 = biological target: T1, Histone deacetylase 8 (Homo sapiens, UniProt Q9BY41); test: Inhibition of recombinant human C-terminal His-tagged HDAC8 (1 to 377 residues) expressed in insect cells using RHK-K(Ac)-AMC as substrate measured after 60 mins by fluorescence assay
# T1 sequence (Q9BY41 whole entry): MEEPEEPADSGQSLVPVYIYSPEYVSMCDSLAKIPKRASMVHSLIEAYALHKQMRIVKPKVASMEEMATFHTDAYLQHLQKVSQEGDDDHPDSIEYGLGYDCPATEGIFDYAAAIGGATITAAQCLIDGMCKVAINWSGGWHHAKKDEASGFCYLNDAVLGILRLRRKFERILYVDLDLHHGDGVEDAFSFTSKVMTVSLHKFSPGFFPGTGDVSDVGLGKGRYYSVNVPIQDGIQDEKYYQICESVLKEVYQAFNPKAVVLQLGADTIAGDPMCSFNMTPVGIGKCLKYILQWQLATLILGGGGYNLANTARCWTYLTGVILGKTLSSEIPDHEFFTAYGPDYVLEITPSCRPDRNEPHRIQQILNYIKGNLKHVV
# Histone deacetylase 1 = Histone deacetylase 1 (Homo sapiens, UniProt Q13547); test: Inhibition of recombinant human C-terminal FLAG/His-tagged HDAC1 (1 to 482 residues) expressed in Sf21 insect cells by using RHK-K(Ac)-AMC as substrate measured after 60 mins by fluorescence assay
# Chain of Histone deacetylase 1 (Q13547 whole entry, the tested form may be a part): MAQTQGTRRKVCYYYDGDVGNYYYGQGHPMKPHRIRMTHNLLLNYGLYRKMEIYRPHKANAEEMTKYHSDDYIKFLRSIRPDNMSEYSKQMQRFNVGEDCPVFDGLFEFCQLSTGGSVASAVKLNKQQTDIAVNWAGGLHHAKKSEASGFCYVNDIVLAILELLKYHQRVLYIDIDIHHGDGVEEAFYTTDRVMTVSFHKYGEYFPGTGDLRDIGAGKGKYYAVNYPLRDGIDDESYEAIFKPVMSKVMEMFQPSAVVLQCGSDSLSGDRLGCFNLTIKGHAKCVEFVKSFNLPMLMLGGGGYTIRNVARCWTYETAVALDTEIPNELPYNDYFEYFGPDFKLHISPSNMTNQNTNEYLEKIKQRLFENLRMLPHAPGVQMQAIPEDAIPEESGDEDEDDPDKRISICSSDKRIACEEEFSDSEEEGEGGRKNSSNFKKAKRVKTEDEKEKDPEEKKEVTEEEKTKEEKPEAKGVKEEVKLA
# HCT-116 = test: Antiproliferative activity against human HCT116 cells assessed as reduction in cell viability incubated for 48 hrs by Sulforhodamine B assay; format: functional; details: HCT-116, 48 h
# [2] = biological target: Class 1 histone deacetylase (Homo sapiens) (UniProt Q13547+O15379+Q92769+Q9BY41); test: Inhibition of class 1 HDAC in human HCT116 cells assessed as increase in H3 acetylation measured after 48 hrs by Western blot analysis; format: cell-based; details: HCT-116
# [3] = biological target: T2, Protein deacetylase HDAC6 (Homo sapiens) (UniProt Q9UBN7); test: Inhibition of HDAC6 in human HCT116 cells assessed as increase in tubulin acetylation measured after 48 hrs by Western blot analysis; format: cell-based; details: HCT-116
# T2 sequence (whole entry): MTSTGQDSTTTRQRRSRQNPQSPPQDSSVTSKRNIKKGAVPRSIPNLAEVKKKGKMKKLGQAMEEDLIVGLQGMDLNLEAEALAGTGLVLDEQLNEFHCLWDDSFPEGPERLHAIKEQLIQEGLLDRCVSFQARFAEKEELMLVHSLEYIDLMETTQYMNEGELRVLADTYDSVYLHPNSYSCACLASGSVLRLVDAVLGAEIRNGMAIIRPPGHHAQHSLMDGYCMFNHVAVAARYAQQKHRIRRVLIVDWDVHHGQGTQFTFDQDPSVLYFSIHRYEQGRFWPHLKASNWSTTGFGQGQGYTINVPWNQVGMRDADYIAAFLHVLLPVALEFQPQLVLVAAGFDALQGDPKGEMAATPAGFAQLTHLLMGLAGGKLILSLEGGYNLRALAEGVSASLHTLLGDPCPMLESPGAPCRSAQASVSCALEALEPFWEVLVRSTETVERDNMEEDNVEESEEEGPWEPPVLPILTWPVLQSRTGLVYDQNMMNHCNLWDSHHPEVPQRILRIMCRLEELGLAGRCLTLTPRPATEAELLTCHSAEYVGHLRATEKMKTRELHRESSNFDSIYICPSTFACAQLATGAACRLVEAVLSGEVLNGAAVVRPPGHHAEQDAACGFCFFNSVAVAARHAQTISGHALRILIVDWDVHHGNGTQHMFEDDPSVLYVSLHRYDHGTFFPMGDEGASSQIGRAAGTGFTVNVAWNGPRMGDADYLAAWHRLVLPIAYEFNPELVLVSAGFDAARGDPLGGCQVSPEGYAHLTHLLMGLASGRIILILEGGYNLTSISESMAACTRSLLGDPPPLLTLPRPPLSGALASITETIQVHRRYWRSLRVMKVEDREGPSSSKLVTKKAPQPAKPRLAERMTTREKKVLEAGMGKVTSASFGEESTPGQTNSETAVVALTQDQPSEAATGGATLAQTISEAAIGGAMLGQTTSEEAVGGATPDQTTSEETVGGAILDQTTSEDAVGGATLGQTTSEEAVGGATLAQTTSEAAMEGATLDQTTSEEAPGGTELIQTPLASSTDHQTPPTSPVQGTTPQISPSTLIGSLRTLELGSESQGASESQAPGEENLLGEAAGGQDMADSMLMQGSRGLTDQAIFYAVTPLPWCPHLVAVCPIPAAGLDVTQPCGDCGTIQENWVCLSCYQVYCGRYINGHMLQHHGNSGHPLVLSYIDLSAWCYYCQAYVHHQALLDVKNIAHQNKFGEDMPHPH
# [4] = biological target: T3, Protein deacetylase HDAC6 (Homo sapiens, UniProt Q9UBN7); test: Inhibition of human HDAC6 using fluorogenic-(RHKKAc) as substrate by fluorescence assay
# T3 sequence (Q9UBN7 whole entry): T2 sequence (whole entry)
# Homo sapiens [5] = organism: Homo sapiens; test: Selectivity ratio of IC50 for recombinant human C-terminal FLAG/His-tagged HDAC1 (1 to 482 residues) expressed in Sf21 insect cells to IC50 of human HDAC6
# A549 = test: Antiproliferative activity against human A549 cells assessed as reduction in cell viability incubated for 48 hrs by Sulforhodamine B assay; format: functional; details: A549, 48 h
# Histone deacetylase 2 = Histone deacetylase 2 (Homo sapiens, UniProt Q92769); test: Inhibition of recombinant human C-terminal GST-tagged HDAC2 (1 to 488 residues) expressed in insect cells using RHK-K(Ac)-AMC as substrate measured after 60 mins by fluorescence assay
# Chain of Histone deacetylase 2 (Q92769 whole entry, the tested form may be a part): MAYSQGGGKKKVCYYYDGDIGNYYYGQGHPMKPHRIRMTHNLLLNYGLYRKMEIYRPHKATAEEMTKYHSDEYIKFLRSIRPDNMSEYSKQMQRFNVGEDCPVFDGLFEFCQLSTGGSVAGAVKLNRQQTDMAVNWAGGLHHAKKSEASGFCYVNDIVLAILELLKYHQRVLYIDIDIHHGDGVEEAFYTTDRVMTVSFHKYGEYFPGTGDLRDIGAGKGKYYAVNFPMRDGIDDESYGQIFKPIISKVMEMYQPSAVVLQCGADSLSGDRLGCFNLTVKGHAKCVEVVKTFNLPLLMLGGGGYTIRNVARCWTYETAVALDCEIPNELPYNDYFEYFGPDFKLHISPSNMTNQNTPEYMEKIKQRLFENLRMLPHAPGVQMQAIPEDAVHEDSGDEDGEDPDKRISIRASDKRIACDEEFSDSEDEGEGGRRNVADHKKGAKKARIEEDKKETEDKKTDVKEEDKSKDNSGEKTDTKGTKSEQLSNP
# Homo sapiens [6] = organism: Homo sapiens; test: Selectivity ratio of IC50 for recombinant human C-terminal GST-tagged HDAC2 (1 to 488 residues) expressed in insect cells to IC50 of human HDAC6
compound,measurement,setting,value
O=C(/C=C/c1ccc2cc(Oc3ccc([N+](=O)[O-])cc3)ccc2n1)NO,Ratio IC50,Homo sapiens [1],45
same,IC50,Histone deacetylase 8,2320 nM
same,IC50,Histone deacetylase 1; read-out: IC50,6050 nM
same,GI50,HCT-116,1000 nM
same,inhibition,[2],Dose-dependent effect
same,inhibition,[3],Dose-dependent effect
same,IC50,[4],51.4 nM
same,Ratio IC50,Homo sapiens [5],118
same,GI50,A549,1630 nM
same,IC50,Histone deacetylase 2,Not Active
O=C(CCCCCCC(=O)Nc1ccccc1)NO [VORINOSTAT],GI50,HCT-116,440 nM
same,GI50,A549,2620 nM
O=C(/C=C/c1ccc2cc(-c3ccoc3)ccc2n1)NO,GI50,HCT-116,1560 nM
same,GI50,A549,1920 nM
COc1cccc(Oc2ccc3nc(/C=C/C(=O)NO)ccc3c2)c1,GI50,HCT-116,2740 nM
same,GI50,A549,4350 nM
COc1ccc(Oc2ccc3nc(/C=C/C(=O)NO)ccc3c2)cc1,Ratio IC50,Homo sapiens [1],374
same,IC50,Histone deacetylase 8,7750 nM
same,IC50,Histone deacetylase 1; read-out: IC50,> 10000 nM
same,GI50,HCT-116,1820 nM
same,inhibition,[2],Dose-dependent effect
same,inhibition,[3],Dose-dependent effect
same,IC50,[4],20.7 nM
same,Ratio IC50,Homo sapiens [5],> 483
same,GI50,A549,3200 nM
same,IC50,Histone deacetylase 2,Not Active
COc1ccc(C(=O)c2ccc3nc(/C=C/C(=O)NO)ccc3c2)cc1OC,GI50,HCT-116,1780 nM
same,GI50,A549,3310 nM
Cc1ccc(C(=O)c2ccc3nc(/C=C/C(=O)NO)ccc3c2)cc1,GI50,HCT-116,2510 nM
same,GI50,A549,2580 nM
COc1ccc(S(=O)(=O)Nc2ccc3nc(/C=C/C(=O)NO)ccc3c2)cc1,GI50,HCT-116,6680 nM
same,GI50,A549,4310 nM
COc1cc(Oc2ccc3nc(/C=C/C(=O)NO)ccc3c2)cc(OC)c1OC,Ratio IC50,Homo sapiens [1],106
same,Ratio IC50,Homo sapiens [6],0.7
same,IC50,Histone deacetylase 8,2820 nM
same,IC50,Histone deacetylase 1; read-out: IC50,1770 nM
same,GI50,HCT-116,740 nM
same,inhibition,[2],Dose-dependent effect
same,inhibition,[3],Dose-dependent effect
same,IC50,[4],26.5 nM
same,Ratio IC50,Homo sapiens [5],67
same,GI50,A549,2430 nM
same,IC50,Histone deacetylase 2; read-out: IC50,18.7 nM
O=C(/C=C/c1ccc2cc(C(=O)c3ccc(F)cc3)ccc2n1)NO,GI50,HCT-116,1840 nM
same,GI50,A549,1260 nM
COc1ccc(C(=O)c2ccc3nc(/C=C/C(=O)NO)ccc3c2)cc1,GI50,HCT-116,2300 nM
same,GI50,A549,1890 nM
COc1cc(C(=O)c2ccc3nc(/C=C/C(=O)NO)ccc3c2)cc(OC)c1OC,GI50,HCT-116,2620 nM
same,GI50,A549,3350 nM
COc1ccc(-c2ccc3nc(/C=C/C(=O)NO)ccc3c2)cc1,Ratio IC50,Homo sapiens [1],97
same,Ratio IC50,Homo sapiens [6],27
same,IC50,Histone deacetylase 8,4770 nM
same,IC50,Histone deacetylase 1; sf21,Not Active
same,GI50,HCT-116,1470 nM
same,inhibition,[2],Dose-dependent effect
same,inhibition,[3],Dose-dependent effect
same,IC50,[4],49 nM
same,GI50,A549,2350 nM
same,IC50,Histone deacetylase 2; read-out: IC50,1310 nM
CN1CCc2c(c3ccccc3n2Cc2ccc(C(=O)NO)cc2)C1 [TUBASTATIN A],GI50,HCT-116,> 5000 nM
same,GI50,A549,> 5000 nM
CC(C)c1ccc(Oc2ccc3nc(/C=C/C(=O)NO)ccc3c2)cc1,GI50,HCT-116,4080 nM
same,GI50,A549,3280 nM
